Values quoted from earlier work in US9687454B2, “Sublingual and buccal film compositions” (Indivior UK Limited, priority 2009, dated 2017).

Details: known value

C=CCN1CC[C@]23c4c5ccc(O)c4O[C@H]2C(=O)CC[C@@]3(O)[C@H]1C5 [naloxone]
pKa: about 7.94
